In US9161925B2, “Therapeutic uses of beta-3 adrenergic receptor agonist derivatives in particular to modulate apoptosis” (SANOFI, priority 2007, dated 2015):

Legend:
Type in all cases: cell-based, human
IL6 = assay: Cytometric Bead Array, IL6 in supernatants of myometrial strips
Protocol: (§1) Myometrial biopsies obtained from women with uncomplicated pregnancies were immediately transferred in sterile Dubelcco's Modified Eagle Medium (DMEM) and washed twice with sterile Phosphate Buffer Saline (PBS). Biopsies were cut into small strips, each being placed in a 24-well plate containing 2 ml of culture medium DMEM, without the use of antibiotics. Strips were then incubated at 37° C. with 5% CO2 for 48 h in order to allow cytokine levels to return to basal values (Fortunato S J, et al. Am J Reprod Immunol 1994; 32: 184-187).
(§2) In order to reproduce with LPS (Escherichia coli 055:B5) the findings on myometrial samples obtained from women with chorioamnionitis, myometrial strips were incubated with three different concentrations of LPS (50 ng/ml, 1 μg/ml and 10 μg/ml) at three different times (8 h, 24 h, 48 h). […]
(§3) Cytokines measurements were determined by Cytometric Bead Array (CBA; Bender MedSystems). Supernatants of 5 myometrial strips were incubated with labeled capture beads and detection reagent for 3 h in the dark at room temperature, and analyzed with a flow cytometer (FACSCalibur; BD Biosciences) by using the respective CBA Analysis software (BD Biosciences) and Bender MedSystems software. Cytokine standards for quantification (pg/mL) as well as the blanks were handled in the same manner as the samples. […]

caspase-3 transcripts = assay: Real time quantitative RT-PCR of caspase-3 transcripts in myometrial tissue; conditions: LPS alone 2.08±0.63
Protocol: as §1
In order to reproduce with LPS (Escherichia coli 055:B5) the findings on myometrial samples obtained from women with chorioamnionitis, myometrial strips were incubated with three different concentrations of LPS (50 ng/ml, 1 μg/ml and 10 μg/ml) at three different times (8 h, 24 h, 48 h). In a second set of experiments, in order to assess the role of TNF in LPS-induced apoptosis in myometrial tissue, the strips were incubated with LPS 10 μg/ml for 48 h with or without anti TNF antibodies (0.6 μg/ml) (Human TNF alpha/TNFSF1A antibody, R&D systems Europe, Lille, France, the concentration of the antibody used was chosen based on the manufacturer's recommendations). […]
Total RNA was prepared from 5 myometrial tissues obtained from 5 different women, using Trizol solution (Life Technologies, Groningen, The Netherlands) according to the manufacturer's instructions. […] Real time quantitative PCR analyses were performed using 25 ng of reverse transcribed total RNA with 200 nM of both sense and anti sense primers in a final volume of 25 μl using the SYBR Green PCR jumpstart reagent (Sigma, Saint Louis, Mo., USA) in an iCycler iQ real time detection system instrument (Bio-Rad, Marnes-la-Coquette, France). PCR products were also analyzed on edithium bromide stained agarose gel to ensure that a single amplicon of the expected size was indeed obtained. […]

BAX protein = assay: Western blot of BAX in myometrial strips stimulated with LPS
Protocol: as §1, with “184-187). […]” for “184-187).”
(§4) Snap-frozen myometrial tissues were homogenized with Ultra-Turrax in homogenization buffer [10 mM Tris-HCl (pH 7.4), 1 mM EDTA, […] leupeptine, 2 mM Pefabloc]. After an initial centrifugation at 500×g for 15 min at 4° C., total protein supernatant content was determined by the Bradford method with BSA as standard. […] Immunoreactive proteins were detected by chemiluminescence (ECL™ detection reagents, RPN2105, Amersham, USA) and exposure to a X-ray film (Hyperfilm™, Amersham Bioscience, USA). The intensities of the bands were analyzed densitometrically using the NIH Image 1.62 program and normalized with intensity of bands obtained with monoclonal antibody to Glyceraldehyde 3-Phosphate Dehydrogenase (GAPDH) used as protein loading control. Results are expressed as the mean±s.e.m. in Arbitrary Density Unit (A.D.U).

BCL2 protein = assay: Western blot of BCL2 in myometrial strips stimulated with LPS
Protocol: as §1, with “184-187). […]” for “184-187).”
as §4

IL8 = assay: Cytometric Bead Array, IL8 in supernatants of myometrial strips
Protocol: as §1, §2, §3

[1] = test system: cleaved caspase-3 protein; assay: Western blot of cleaved caspase-3 in myometrial strips stimulated with LPS
Protocol: as §1, with “184-187). […]” for “184-187).”
as §4

[2] = tissues not stimulated with LPS (data not shown)
[3] = Compound A 10^-7, 10^-6, 10^-5 M with LPS 10 μg/ml 48 h, ANOVA P<0.01, FIG. 4

CCOC(=O)c1ccc([C@H]2CC[C@H](NC[C@H](O)COc3ccc(O)c(NS(C)(=O)=O)c3)CC2)cc1.Cl [Compound A, Ethyl-4-{trans-4-[((2S)-2-hydroxy-3-{4-hydroxy-3[(methylsulfonyl)-amino]phenoxy}propyl)amino]cyclohexyl}benzoate hydrochloride]
effect on LPS-induced IL6 (IL6; Compound A with LPS, concentration dependent, not statistically significant, FIG. 5): decreased
effect by itself on IL6 release (IL6; [2]): not effect
caspase-3 transcripts, fold increase normalized to GAPDH compared with controls (caspase-3 transcripts; LPS with Compound A 10^-5 M): 0.93±0.41 fold
caspase-3 transcripts, fold increase normalized to GAPDH compared with controls (caspase-3 transcripts; LPS with Compound A 10^-6 M): 0.84±0.53 fold
caspase-3 transcripts, fold increase normalized to GAPDH compared with controls (caspase-3 transcripts; LPS with Compound A 10^-7 M): 1.17±0.81 fold
antagonism of LPS-induced BAX protein up-regulation (BAX protein; [3]): antagonized in a concentration dependant manner
effect by itself on BAX expression (BAX protein; [2]): no effect
antagonism of LPS-induced BCL2 protein down-regulation (BCL2 protein; [3]): antagonized in a concentration dependant manner
effect by itself on BCL2 expression (BCL2 protein; [2]): no effect
effect on LPS-induced IL8 (IL8; Compound A with LPS, concentration dependent, ANOVA P=0.01, FIG. 5): decreased
effect by itself on IL8 release (IL8; [2]): not effect
antagonism of LPS-induced changes in cleaved caspase-3 expression ([1]; Compound A 10^-7, 10^-6, 10^-5 M with LPS 10 μg/ml 48 h, concentration dependent, ANOVA P<0.001, FIG. 3): significantly antagonize
effect by itself on cleaved caspase-3 expression [1, 2]: no effect
